Data on 22 compounds can be found in US20240190904A1, “Heteroaryl compounds as inhibitors of RIP2 kinase, composition and application thereof” (Accro Bioscience (HK) Limited, priority 2021, published 2024).

Series [1] relates to IL-8 in THP-1 induced by MDP. Nature of the series: THP-1 cell assay, IL-8 ELISA after MDP. Conditions: for inhibition at 0.01 µM: Homo sapiens, test compounds 10 nM, THP-1, MDP induced. Type of series: cell-based. How it is done: Acute monoblastic and monocytic leukemia (THP-1) was obtained from ATCC (item NO. TIB-202™). The temperature of the sterile incubator is 37˜38° C., the osmotic pressure is 260˜320 mmol/L, the pH range is 7.2˜7.4, and the ratio of carbon dioxide gas is 5%.
Cells were seeded in 96-well plates. After an hour, cells were incubated with test compounds for 2 hours. MDP (10 μL) was added and incubated for 6 hours. The samples were centrifuged (3000 rmp/min) for 5 minutes. The concentration of IL-8 in the supernatants was detected by IL-8 ELISA.

Series [2] has as its target RIP2 kinase (Homo sapiens (Human), UniProt O43353). The experiment in a line: Binding affinity assay (Kd). The protocol: For most assays, kinase-tagged T7 phage strains were prepared in an E. coli host derived from the BL21 strain. E. coli were grown to log-phase and infected with T7 phage and incubated with shaking at 32° C. until lysis. The lysates were centrifuged and filtered to remove cell debris. The remaining kinases were produced in HEK-293 cells and subsequently tagged with DNA for qPCR detection. Streptavidin coated magnetic beads were treated with biotinylated small molecule ligands for 30 minutes at room temperature to generate affinity resins for kinase assays. The liganded beads were blocked with excess biotin and washed with blocking buffer (SeaBlock (Pierce), 1% BSA, 0.05% Tween 20, 1 mM DTT) to remove unbound ligand and to reduce non-specific binding. Binding reactions were assembled by combining kinases, liganded affinity beads, and test compounds in 1× binding buffer (20% SeaBlock, 0.17×PBS, 0.05% Tween 20, 6 mM DTT). Test compounds were prepared as 111× stocks in 100% DMSO. Kds were determined using an 11-point 3-fold compound dilution series with three DMSO control points. All compounds for Kd measurements are distributed by acoustic transfer (non-contact dispensing) in 100% DMSO. The compounds were then diluted directly into the assays such that the final concentration of DMSO was 0.9%. All reactions performed in polypropylene 384-well plate. Each was a final volume of 0.02 ml. The assay plates were incubated at room temperature with shaking for 1 hour and the affinity beads were washed with wash buffer (1×PBS, 0.05% Tween 20). The beads were then re-suspended in elution buffer (1×PBS, 0.05% Tween 20, 0.5 μM nonbiotinylated affinity ligand) and incubated at room temperature with shaking for 30 minutes. The kinase concentration in the eluates was measured by qPCR.
An 11-point 3-fold serial dilution of each test compound was prepared in 100% DMSO at 100× final test concentration and subsequently diluted to 1× in the assay (final DMSO concentration=1%). Most Kds were determined using a compound top concentration=30,000 nM. If the initial Kd determined was <0.5 nM (the lowest concentration tested), the measurement was repeated with a serial dilution starting at a lower top concentration.
Binding constants (Kds) were calculated with a standard dose-response curve using the Hill equation: […]
The Hill Slope was set to −1.
Curves were fitted using a non-linear least square fit with the Levenberg-Marquardt algorithm.

A short description of series [3]: Protein binding test (dialysis), rat. Type of series: in vitro ADME. How it is done:
(§1) • 1. Spiking Solutions of Test and Reference Compounds • 1.1 Solution A (0.5 mM): Add 10 μL of 10 mM stock solution into 190 μL of DMSO. • 1.2 Solution B (0.02 mM): Add 8 μL of Solution A into 192 μL of 0.05 M sodium phosphate buffer. The final DMSO concentration in Solution B is 4%. • 2. Preparation of Test and Reference Compounds • 2.1 Preload a 96-well plate with 380 μL aliquots of plasma in the wells designated for plasma and buffer, respectively. • 2.2 Spike 20 μL of Solution B (0.02 mM of test and reference compounds) into the pre-loaded plasma in the 96-well plate. The final test concentration is 1 μM containing 0.2% DMSO. • 3. Dialysis Sample Loading • 3.1 Preparing plasma against buffer system (duplicate): Apply aliquots of 100 μL of blank dialysis buffer to the receiver side of dialysis chambers. Then apply aliquots of 100 μL of the plasma spiked with test and reference compounds to the donor side of the dialysis chambers. • 3.2 Preparing T0 plasma samples for initial concentrations (duplicate): • 3.2.1 Aliquot 25 μL of the plasma spiked with test and reference compounds into a 96-well sample preparation plate as T0 plasma samples • 3.2.2 Mix the aliquots with same volume of blank buffer (50:50, v/v). • 3.2.3 Quench the samples with 200 μL of acetonitrile containing internal standard (IS). • 3.3 Cover the dialysis block with a plastic lid and place the entire apparatus in a shaker (60 rpm) for 5 hours at 37° C. • 3.4 Preparing dialyzed samples after 5-hour incubation: • 3.4.1 Aliquot 25 μL from both the donor sides and receiver sides of the dialysis apparatus into new sample preparation plates and mix the aliquots with same volume of opposite matrixes (blank buffer to plasma and vice versa). • 3.4.2 Quench the samples with 200 μL acetonitrile containing internal standard (IS). Vortex all the samples (from 0 h and 5 h) at 600 rpm for 10 min followed by centrifugation at 5594 g for 15 minutes (ThermoMultifuge×3R). • 3.4.3 Transfer 50 μL of the supernatants to a new 96-well plate and mix the samples with 50 μL of Milli-Q water. Cover the sample plate and store it in a freezer (−20° C.) until LC/MS/MS analysis.

A short description of series [4]: Protein binding test (dialysis), human. Type of series: in vitro ADME. The protocol:
as §1

Series [5] in a line: Pharmacokinetic evaluation in mice. Type of series: in vivo. The protocol: The mice pharmacokinetic characteristics of compounds were tested by standard protocols. The candidate compounds were made into clear solution for single intravenous injection (i.v.) and suspension for oral administration (p.o.). Intravenous vehicle is 5% DMSO+95% Saline while oral vehicle is 0.5% CMCNa. The experiment used 48 male mice and 24 mice for intravenous at a dose of 2 mg/kg. Plasma samples were collected at 0 h (before dosing) and 0.083 h, 0.25 h, 0.5 h, 1 h, 2 h, 4 h, 8 h, 24 h after dosing. Another 24 mice were orally administrated with a dose of 10 mg/kg. Plasma samples were collected at 0 h (before dosing) and 0.25 h, 0.5 h, 1 h, 2 h, 4 h, 6 h, 8 h, 24 h after dosing.
Blood samples were placed in tubes containing K2-EDTA and stored on ice until centrifuged. The blood samples were centrifuged at 6800 g for 6 minutes at 2-8° C. within 1 h after collected and stored frozen at approximately −80° C.
The analytical results were confirmed using quality control samples for intra-assay variation. The accuracy of >66.7% of the quality control samples and 50% of all QC samples at each concentration level were between 80-120% of the known value(s).
Standard set of parameters including Area Under the Curve (AUC(0-t) and AUC(0-∞)), elimination half-live (T1/2), maximum plasma concentration (Cmax), time to reach maximum plasma concentration (Tmax) were calculated using noncompartmental analysis modules in FDA certified pharmacokinetic program Phoenix WinNonlin 7.0 (Pharsight, USA) by the Study Director.

Series [6] can be described thus: Protein binding test (dialysis), dog. Format: in vitro ADME. The protocol:
as §1

The mark [7] stands for this setting: male, mouse, plasma, iv, i.v. 2 mg/kg.
Where [8] appears, read: male, mouse, plasma, po, p.o. 10 mg/kg.

Each structure is given as a SMILES string. Structures can show the parent of a compound that is named as a salt.

Sequence of RIP2 kinase (O43353 whole entry): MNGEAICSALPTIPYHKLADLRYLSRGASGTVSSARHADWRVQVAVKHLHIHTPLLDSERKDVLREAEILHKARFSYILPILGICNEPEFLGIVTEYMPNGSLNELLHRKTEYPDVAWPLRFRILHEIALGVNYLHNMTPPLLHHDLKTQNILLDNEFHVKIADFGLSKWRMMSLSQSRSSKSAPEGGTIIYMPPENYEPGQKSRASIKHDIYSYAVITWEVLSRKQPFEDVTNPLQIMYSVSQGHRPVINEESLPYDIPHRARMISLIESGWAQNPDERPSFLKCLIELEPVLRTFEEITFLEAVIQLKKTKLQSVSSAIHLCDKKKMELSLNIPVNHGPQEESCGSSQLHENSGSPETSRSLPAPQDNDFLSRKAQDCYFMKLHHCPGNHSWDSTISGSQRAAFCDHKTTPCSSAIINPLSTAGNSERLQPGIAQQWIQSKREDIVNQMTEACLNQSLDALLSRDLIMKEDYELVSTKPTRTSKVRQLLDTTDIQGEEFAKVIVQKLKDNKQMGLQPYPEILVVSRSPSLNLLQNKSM

Regarding `CP(C)(=O)c1cc2c(Nc3ccc4scnc4c3F)ccnc2cc1OC1COC1` [A29], in series [1], testing at 0.01 µM gave an inhibition of 85%.
Compound `Cc1[nH]nc(Nc2ccnc3ccc(P(C)(C)=O)cc23)c1C` [A4] yielded a Kd in series [2] of 89 nM.
As to `COc1cc2nncc(Nc3ccc4scnc4c3)c2cc1P(C)(C)=O` [B2, (4-(benzo[d]thiazol-5-ylamino)-7-methoxycinnolin-6-yl)dimethylphosphine oxide], the “inhibition of IL-8 in THP-1 induced by MDP (in words)” value in series [1] (10 nM) is “no effect”. The compound further showed an inhibition at 0.01 µM in series [1] of 0%.
In the case of `CP(C)(=O)c1ccc2nccc(Nc3cc(O)ccc3F)c2c1` [A5], the affinity in series [2], expressed as Kd, was 120 nM.
The compound `Cc1ccc(O)cc1Nc1ccnc2ccc(P(C)(C)=O)cc12` [A2] yielded a Kd in series [2] of 89 nM.
Consider `Cn1cc(-c2cc3nccc(Nc4ccc5scnc5c4)c3cc2P(C)(C)=O)cn1` [A11, (4-(benzo[d]thiazol-5-ylamino)-7-(1-methyl-1H-pyrazol-4-yl)quinolin-6-yl)dimethylphosphine oxide], for which the Kd in series [2] was 3 nM. The compound further gave an inhibition at 0.01 µM in series [1] of 37%.
The compound `Cc1noc(C)c1-c1cc2nccc(Nc3ccc4scnc4c3)c2cc1P(C)(C)=O` [A27] came in with an inhibition at 0.01 µM in series [1] of 37%.
Same read-out and setting: the same measure for `COc1cc2nccc(Nc3ccc4scnc4c3F)c2cc1P(C)(C)=O` [A28]: 63%.
For the compound `CP(C)(=O)c1cc2c(Nc3ccc4scnc4c3)ccnc2cc1OC(F)F` [A25], the “protein binding in rat (in words)” value in series [3] (rat) is reported as “high protein binding”. Moreover, the fraction unbound at 5 h, 1 μM in series [3] (rat plasma, 1 μM) was 0.006. The compound also showed an equilibrium dissociation constant (Kd) in series [2] of 6.4 nM. Moreover, the “protein binding in human (in words)” value in series [4] (human) is reported as “moderate”. Moreover, in series [4] (human plasma, 1 μM), the fraction unbound at 5 h, 1 μM was 0.032. Also, the “plasma exposure and bioavailability in mice (in words)” value in series [5] was “excellent plasma exposure and bioavailability”. For the same compound, in series [5] (setting [7]), the AUC was determined as 6510 ng·h/mL, the Vd was 0.59 L/kg, the clearance was found to be 4.3 mL/min/kg and the half-life is 1.6 h. For the same compound, in series [5] (setting [8]), the AUC was found to be 68300 ng·h/mL, the Cmax was 19200 ng/mL and the Tmax was determined as 0.7 h. The F in series [5] (p.o. 10 mg/kg) worked out at 210%. For the same compound, the “protein binding in dog (in words)” value in series [6] (dog) is listed as “moderate”. For the same compound, in series [6] (dog plasma, 1 μM), the fraction unbound at 5 h, 1 μM is 0.05.
In series [2], `CP(C)(=O)c1ccc2nccc(Nc3n[nH]c4ccc(F)cc34)c2c1` [A3] showed a Kd of 430 nM.
`[2H]C([2H])([2H])Oc1cc2nccc(Nc3ccc4scnc4c3)c2cc1P(C)(C)=O` [A22]: testing at 0.01 µM in series [1] gave an inhibition of 60%.
`CP(C)(=O)c1ccc2nccc(Nc3ccc4scnc4c3)c2c1` [A1, (4-(benzo[d]thiazol-5-ylamino)quinolin-6-yl)dimethylphosphine oxide hydrochloride] had a Kd in series [2] of 28 nM.
The same measure, in the same setting: the same measure for `CP(C)(=O)c1cc2c(Nc3ccc4scnc4c3)ccnc2cc1F` [A20]: 8.7 nM.
Turning to `CP(C)(=O)c1cnc2nccc(Nc3ccc4scnc4c3)c2c1` [B1, (5-(benzo[d]thiazol-5-ylamino)-1,8-naphthyridin-3-yl)dimethylphosphine oxide], in series [2], the Kd was determined as 3200 nM and the “affinity with RIP2 kinase (in words)” value is “low affinity”.
Regarding `CP(C)(=O)c1cc2c(Nc3ccc4scnc4c3)ccnc2cc1OC1CCC1` [A21], in series [2], the Kd is 1.5 nM.
Compound `CP(C)(=O)c1cc2c(Nc3ccc4scnc4c3)ccnc2cc1OC[C@H](O)CO` [A19] displayed an inhibition at 0.01 µM in series [1] of 13%.
The same measure, in the same setting: the same measure for `CP(C)(=O)c1cc2c(Nc3ccc4scnc4c3)ccnc2cc1-c1cn[nH]c1` [A17]: 11%.
In series [2], `CP(C)(=O)c1cc2c(Nc3ccc4scnc4c3)ccnc2cc1-c1cc[nH]n1` [A12] showed a Kd of 2.3 nM.
For `CP(C)(=O)c1cc2c(Nc3ccc4scnc4c3)ccnc2cc1OC1CCOC1` (centres unmarked) [A10], the affinity in series [2], expressed as Kd, was 1.8 nM. In series [1], this compound registered an inhibition at 0.01 µM of 51%.
`CP(C)(=O)c1cc2c(Nc3ccc4scnc4c3)ccnc2cc1C1COC1` [A26, (4-(benzo[d]thiazol-5-ylamino)-7-(oxetan-3-yl)quinolin-6-yl)dimethylphosphine oxide] yielded a Kd in series [2] of 12 nM.
Regarding `COc1cc2ncc(F)c(Nc3ccc4scnc4c3)c2cc1P(C)(C)=O` [A23, (4-(benzo[d]thiazol-5-ylamino)-3-fluoro-7-methoxyquinolin-6-yl)dimethylphosphine oxide], at 0.01 µM the inhibition in series [1] was 5%.
On the same count and under the same terms, next, `CP(C)(=O)c1cc2c(Nc3ccc4scnc4c3)ccnc2cc1OC[C@@H](O)CO` [A18, (S)-(4-(benzo[d]thiazol-5-ylamino)-7-(2,3-dihydroxypropoxy)quinolin-6-yl)dimethylphosphine oxide]: 12%.

One may read the inhibition as how much of the control response was suppressed. A lower inhibition goes with a response near the control. One may read the Kd as a measure of binding affinity in units of concentration. Read a low Kd as tighter binding. A word on the fraction unbound: it is the share of the substance not bound to proteins or other matrix. Usually AUC stands for the area under the concentration-time curve, a measure of exposure. As a reminder, the Vd is a proportionality between amount in the body and measured concentration, not a real space. Read a high Vd as wide distribution into tissue. Broadly, the clearance is the rate of elimination divided by the concentration. Lower therefore signals inefficient removal. What is called half-life is the time in which the quantity being followed falls by half. Read a high half-life as slow decline. By Cmax is commonly meant the peak of the concentration-time curve. A word on the Tmax: it is the time at which the peak concentration occurs.
